According to patent US7429460B2, “Methods of screening for inhibitors of phospholipid synthesis related to glycolipid-storage diseases” (Yeda Research and Development Co., Ltd., priority 2003, dated 2008):

Columns and labels:
[1] = tested on: rat hippocampal neurons; assay: Labeling of neuronal lipids with [14C]methyl choline; format: cell-based; conditions: after 4-days of treatment, remained elevated for at least 8-days
Method: Neurons were incubated for 48 h with 1 μCi [^14C]methyl choline/ml of culture medium. Subsequently, medium was removed and the neurons were washed 3-times with phosphate-buffered saline. Neurons were removed from the cover slips by scraping with a rubber policeman into 2 ml of cold methanol, and then sonicated. Part of the resulting suspension was used for lipid analysis, part for analysis of the incorporation of total radioactivity into the cells, and part for DNA analysis (see below).
Lipids were extracted by addition of chloroform to obtain a final chloroform/methanol ratio of 1:1 (v/v). The lower phase was dried under N2 and the upper phase was kept for analysis of [^14C]methyl choline incorporation into water-soluble metabolites. […] One ml of methanol and 5 ml of Optima Gold scintillation fluid (Packard, Downers Groove, Ill.) were added to each vial for scintillation counting, and radioactivity was determined in a Packard 2100 beta radiospectrometer equipped with the Transformed Spectral Index of the External Standard/Automatic Efficiency Control (tSIE/AEC) program for quench correction and counting of double radiolabeled samples.

[2] = tested on: rat hippocampal neurons; assay: [14C]PC degradation and acetolysis of [14C]PC in neurons; format: cell-based; conditions: CBE-treated neurons
Method: In some cases, acetolysis was performed to determine the amount of [^14C]-radioactivity that remained in the [^14C]methyl choline head group moiety of [^14C]PC after 48 h labeling with [^14C]methyl choline. [^14C]PC was removed from TLC plates by scraping, eluted from the silica using chloroform/methanol/acetic acid/water (50:39:1:10, v/v/v/v), and subjected to acetolysis. Briefly, 2 ml of acetic anhydride/acetic acid (2:3, v/v) was added to the tubes containing [^14C]PC, the mixture heated at 140° C. for 16 h, 200 μl of water added to each tube, dried under N2, and separated into aqueous and organic phases. […] [^14C]-Lipids and the [^14C]-head group polar moieties were analyzed and quantified as above.
Since metabolic labeling with [^14C]methyl choline was performed for up to 48 h (due to the relatively low amount of neurons available), we analyzed whether the increase in [^14C]methyl choline levels was due to changes in the rate of [^14C]PC synthesis or in the rate of [^14C]PC degradation. Neurons were incubated with [^14C]methyl choline to metabolically label [^14C]PC, and the rate of [^14C]PC degradation measured. No difference in the rate of degradation between control and CBE-treated neurons was detected (FIG. 3). […]

[3] = tested on: CTP:phosphocholine cytidylyltransferase (CCT); assay: CCT assay in homogenates of treated hippocampal neurons; format: cell-based, rat; conditions: neurons incubated with 500 μM CBE for 4- or 8-days
Method: Neurons from individual cover slips were washed twice with ice-cold phosphate-buffered saline, and cells removed by scraping into 300 μl of buffer containing 50 mM imidazole, 2 mM EDTA, 150 mM KCl, 6 mM ADP, 0.2 mM phenylmethylsulfonylfluoride, 1 μg/ml pepstatin and 1 μg/ml leupeptin. After brief sonication, an aliquot was removed for DNA determination and 100 μl was used for the CCT assay.
CCT was assayed as described (Weinhold P A and Feldman D A. 1992. Choline-phosphate cytidylyltransferase. Methods Enzymol. 209, 248-258), with some minor modifications. The assay was performed in a final volume of 200 μl containing 1.6 mM phosphorylcholine/0.25 μCi [^14C]methyl phosphorylcholine, 3 mM CTP, 12 mM magnesium acetate, and DOPC liposomes with or without oleic acid and GicCer or GalCer, as indicated in the figure legends. Liposomes were prepared by sonicating resuspended lipids in the assay buffer at room temperature for 3 min using a sonicator (Sonics & Materials Inc., Newtown, Conn.) fitted with a micro-tip probe set to 750 W output, using 25% of the maximal amplitude and with pulsations of 9.0 sec every 9.2 sec, which gave a translucent liposome preparation with no precipitates. The final concentration of DOPC and oleic acid in the liposomes was 500 μM each. […]

[4] = tested on: rat hippocampal neurons; conditions: 500 μM CBE for 4- or 8-days; cited from earlier work

Compound: O[C@H]1[C@H](O)[C@@H](O)[C@@H]2O[C@@H]2[C@@H]1O (racemic) [CBE, conduritol-B-epoxide]
- [14C]methyl choline incorporation into [14C]SM and [14C]PC [1]: significant increase
- rate of [14C]PC degradation versus control [2]: No difference
- elevation of CCT activity [3]: 2-3 fold
- increase in the rate of incorporation of [3H]dihydrosphingosine into [3H]GlcCer [4]: 4-5 fold
